Source: PMC3000536 (Tetrahedron letters, 2011)
“Also recorded” adds a separate entry of the source.

Experiments:
[1] = target: Coffee beans α-Galactosidase (Coffea arabica, UniProt Q42656); test: Glycosidase inhibition, coffee beans α-galactosidase; assay type: biochemical
Snail β-Mannosidase = test: Glycosidase inhibition, snail β-mannosidase; assay type: biochemical; conditions: read-out: IC50 β-Mannosidase Snail
[2] = target: T1, Rabbit muscle Glycogen phosphorylase (Oryctolagus cuniculus, UniProt P00489); test: Glycogen phosphorylase inhibition, rabbit muscle; assay type: biochemical
T1 sequence (P00489 1-843): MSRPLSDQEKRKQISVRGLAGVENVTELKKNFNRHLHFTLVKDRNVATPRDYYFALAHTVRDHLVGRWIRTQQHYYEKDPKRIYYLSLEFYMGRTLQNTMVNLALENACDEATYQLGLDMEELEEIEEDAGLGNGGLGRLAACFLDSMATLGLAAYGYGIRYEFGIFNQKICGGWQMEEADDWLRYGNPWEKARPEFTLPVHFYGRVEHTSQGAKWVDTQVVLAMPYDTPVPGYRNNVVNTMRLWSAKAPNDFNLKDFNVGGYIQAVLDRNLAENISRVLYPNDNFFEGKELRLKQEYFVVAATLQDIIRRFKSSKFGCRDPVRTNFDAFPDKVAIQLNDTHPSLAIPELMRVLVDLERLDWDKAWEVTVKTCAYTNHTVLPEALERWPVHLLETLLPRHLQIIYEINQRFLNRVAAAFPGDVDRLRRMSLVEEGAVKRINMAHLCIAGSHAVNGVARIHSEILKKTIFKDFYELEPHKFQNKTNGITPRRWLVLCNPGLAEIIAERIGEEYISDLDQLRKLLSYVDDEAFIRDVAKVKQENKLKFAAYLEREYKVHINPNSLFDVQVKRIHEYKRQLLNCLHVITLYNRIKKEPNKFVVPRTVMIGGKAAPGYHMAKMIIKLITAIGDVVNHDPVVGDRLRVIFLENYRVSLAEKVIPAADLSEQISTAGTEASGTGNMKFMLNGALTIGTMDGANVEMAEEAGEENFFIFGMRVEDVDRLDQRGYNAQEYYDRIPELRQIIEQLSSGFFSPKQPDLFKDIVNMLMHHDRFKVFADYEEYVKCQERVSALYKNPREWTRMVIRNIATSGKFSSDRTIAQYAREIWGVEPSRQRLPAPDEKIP

Rat intestinal maltase = test: Glycosidase inhibition, rat intestinal maltase; assay type: biochemical; conditions: read-out: IC50 α-Glucosidase Rat intestinal maltase
Rice α-Glucosidase = Rice α-Glucosidase (Oryza sativa subsp. japonica, UniProt Q653V7); test: Glycosidase inhibition, rice α-glucosidase; assay type: biochemical
Rice α-Glucosidase, sequence (Q653V7 34-885): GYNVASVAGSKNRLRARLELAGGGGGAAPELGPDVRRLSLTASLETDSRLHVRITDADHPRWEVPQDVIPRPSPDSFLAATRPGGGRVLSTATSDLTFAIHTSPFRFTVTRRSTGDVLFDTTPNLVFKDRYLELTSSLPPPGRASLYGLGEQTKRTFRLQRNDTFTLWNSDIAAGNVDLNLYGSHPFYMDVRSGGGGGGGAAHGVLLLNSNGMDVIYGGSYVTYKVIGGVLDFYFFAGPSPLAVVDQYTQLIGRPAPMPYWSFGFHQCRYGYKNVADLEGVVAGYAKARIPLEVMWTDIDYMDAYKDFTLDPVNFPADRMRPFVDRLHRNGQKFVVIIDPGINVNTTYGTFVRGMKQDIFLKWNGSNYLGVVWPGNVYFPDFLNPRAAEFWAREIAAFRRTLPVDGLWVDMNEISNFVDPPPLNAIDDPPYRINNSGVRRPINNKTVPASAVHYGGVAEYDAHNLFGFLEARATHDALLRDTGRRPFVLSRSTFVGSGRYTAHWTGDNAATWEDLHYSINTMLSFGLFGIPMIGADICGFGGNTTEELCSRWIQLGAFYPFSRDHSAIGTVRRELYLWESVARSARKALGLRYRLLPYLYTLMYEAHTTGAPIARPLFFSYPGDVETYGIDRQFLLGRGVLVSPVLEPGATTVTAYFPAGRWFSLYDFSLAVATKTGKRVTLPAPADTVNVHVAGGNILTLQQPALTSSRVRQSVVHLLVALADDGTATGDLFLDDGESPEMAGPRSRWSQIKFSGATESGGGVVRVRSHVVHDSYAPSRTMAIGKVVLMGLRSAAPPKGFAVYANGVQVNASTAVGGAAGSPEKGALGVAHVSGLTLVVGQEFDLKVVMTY

[3] = target: Bovine liver β-Galactosidase; test: Glycosidase inhibition, bovine liver β-galactosidase; assay type: biochemical; conditions: read-out: IC50 β-Galactosidase Bovine liver
[4] = target: T2, Human lysosome α-Galactosidase (Homo sapiens, UniProt P06280); test: Glycosidase inhibition, human lysosome α-galactosidase; assay type: biochemical
T2 sequence (P06280 32-429): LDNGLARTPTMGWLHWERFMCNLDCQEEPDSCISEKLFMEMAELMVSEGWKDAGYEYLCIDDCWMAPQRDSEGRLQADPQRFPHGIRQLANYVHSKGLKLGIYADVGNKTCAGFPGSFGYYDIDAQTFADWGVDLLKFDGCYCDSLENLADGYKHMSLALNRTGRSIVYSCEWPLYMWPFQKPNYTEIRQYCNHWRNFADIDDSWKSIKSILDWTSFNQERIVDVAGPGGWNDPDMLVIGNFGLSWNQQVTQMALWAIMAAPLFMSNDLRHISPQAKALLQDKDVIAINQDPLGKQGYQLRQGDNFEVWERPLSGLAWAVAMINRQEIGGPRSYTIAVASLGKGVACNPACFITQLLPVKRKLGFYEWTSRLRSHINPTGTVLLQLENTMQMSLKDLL

[5] = target: T3, Rat intestinal cellobiase (Rattus norvegicus, UniProt Q02401); test: Glycosidase inhibition, rat intestinal cellobiase; assay type: biochemical
T3 sequence (Q02401 868-1928): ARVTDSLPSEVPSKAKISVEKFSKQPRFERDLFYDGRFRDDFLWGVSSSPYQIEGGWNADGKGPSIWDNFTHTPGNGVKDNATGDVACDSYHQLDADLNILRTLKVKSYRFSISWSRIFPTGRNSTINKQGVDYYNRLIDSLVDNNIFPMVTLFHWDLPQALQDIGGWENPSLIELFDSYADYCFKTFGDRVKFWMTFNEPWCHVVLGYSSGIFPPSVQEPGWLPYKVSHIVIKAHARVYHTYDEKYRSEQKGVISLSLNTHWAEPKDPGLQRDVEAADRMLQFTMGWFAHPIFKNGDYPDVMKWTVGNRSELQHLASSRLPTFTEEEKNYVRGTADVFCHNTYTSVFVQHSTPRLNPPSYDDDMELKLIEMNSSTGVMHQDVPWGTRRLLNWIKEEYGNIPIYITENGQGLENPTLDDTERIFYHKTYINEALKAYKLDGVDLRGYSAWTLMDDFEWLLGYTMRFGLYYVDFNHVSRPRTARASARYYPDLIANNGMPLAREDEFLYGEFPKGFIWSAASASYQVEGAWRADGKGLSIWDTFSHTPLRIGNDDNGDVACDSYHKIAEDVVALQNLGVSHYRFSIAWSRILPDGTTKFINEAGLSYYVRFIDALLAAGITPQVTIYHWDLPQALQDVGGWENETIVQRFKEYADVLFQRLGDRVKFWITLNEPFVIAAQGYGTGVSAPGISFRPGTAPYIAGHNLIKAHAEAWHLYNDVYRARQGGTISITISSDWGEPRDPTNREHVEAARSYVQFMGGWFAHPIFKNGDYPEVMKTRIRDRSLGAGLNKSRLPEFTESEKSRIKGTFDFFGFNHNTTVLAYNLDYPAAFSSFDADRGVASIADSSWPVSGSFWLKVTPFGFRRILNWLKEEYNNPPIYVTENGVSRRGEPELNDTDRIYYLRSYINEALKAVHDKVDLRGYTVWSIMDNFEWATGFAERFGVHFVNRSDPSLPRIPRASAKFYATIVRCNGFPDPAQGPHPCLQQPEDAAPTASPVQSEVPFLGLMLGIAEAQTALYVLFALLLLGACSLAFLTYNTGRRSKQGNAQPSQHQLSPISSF

[6] = target: Rat intestinal isomaltase (Rattus norvegicus, UniProt P23739); test: Glycosidase inhibition, rat intestinal isomaltase; assay type: biochemical
Rat intestinal isomaltase, sequence (P23739 whole entry): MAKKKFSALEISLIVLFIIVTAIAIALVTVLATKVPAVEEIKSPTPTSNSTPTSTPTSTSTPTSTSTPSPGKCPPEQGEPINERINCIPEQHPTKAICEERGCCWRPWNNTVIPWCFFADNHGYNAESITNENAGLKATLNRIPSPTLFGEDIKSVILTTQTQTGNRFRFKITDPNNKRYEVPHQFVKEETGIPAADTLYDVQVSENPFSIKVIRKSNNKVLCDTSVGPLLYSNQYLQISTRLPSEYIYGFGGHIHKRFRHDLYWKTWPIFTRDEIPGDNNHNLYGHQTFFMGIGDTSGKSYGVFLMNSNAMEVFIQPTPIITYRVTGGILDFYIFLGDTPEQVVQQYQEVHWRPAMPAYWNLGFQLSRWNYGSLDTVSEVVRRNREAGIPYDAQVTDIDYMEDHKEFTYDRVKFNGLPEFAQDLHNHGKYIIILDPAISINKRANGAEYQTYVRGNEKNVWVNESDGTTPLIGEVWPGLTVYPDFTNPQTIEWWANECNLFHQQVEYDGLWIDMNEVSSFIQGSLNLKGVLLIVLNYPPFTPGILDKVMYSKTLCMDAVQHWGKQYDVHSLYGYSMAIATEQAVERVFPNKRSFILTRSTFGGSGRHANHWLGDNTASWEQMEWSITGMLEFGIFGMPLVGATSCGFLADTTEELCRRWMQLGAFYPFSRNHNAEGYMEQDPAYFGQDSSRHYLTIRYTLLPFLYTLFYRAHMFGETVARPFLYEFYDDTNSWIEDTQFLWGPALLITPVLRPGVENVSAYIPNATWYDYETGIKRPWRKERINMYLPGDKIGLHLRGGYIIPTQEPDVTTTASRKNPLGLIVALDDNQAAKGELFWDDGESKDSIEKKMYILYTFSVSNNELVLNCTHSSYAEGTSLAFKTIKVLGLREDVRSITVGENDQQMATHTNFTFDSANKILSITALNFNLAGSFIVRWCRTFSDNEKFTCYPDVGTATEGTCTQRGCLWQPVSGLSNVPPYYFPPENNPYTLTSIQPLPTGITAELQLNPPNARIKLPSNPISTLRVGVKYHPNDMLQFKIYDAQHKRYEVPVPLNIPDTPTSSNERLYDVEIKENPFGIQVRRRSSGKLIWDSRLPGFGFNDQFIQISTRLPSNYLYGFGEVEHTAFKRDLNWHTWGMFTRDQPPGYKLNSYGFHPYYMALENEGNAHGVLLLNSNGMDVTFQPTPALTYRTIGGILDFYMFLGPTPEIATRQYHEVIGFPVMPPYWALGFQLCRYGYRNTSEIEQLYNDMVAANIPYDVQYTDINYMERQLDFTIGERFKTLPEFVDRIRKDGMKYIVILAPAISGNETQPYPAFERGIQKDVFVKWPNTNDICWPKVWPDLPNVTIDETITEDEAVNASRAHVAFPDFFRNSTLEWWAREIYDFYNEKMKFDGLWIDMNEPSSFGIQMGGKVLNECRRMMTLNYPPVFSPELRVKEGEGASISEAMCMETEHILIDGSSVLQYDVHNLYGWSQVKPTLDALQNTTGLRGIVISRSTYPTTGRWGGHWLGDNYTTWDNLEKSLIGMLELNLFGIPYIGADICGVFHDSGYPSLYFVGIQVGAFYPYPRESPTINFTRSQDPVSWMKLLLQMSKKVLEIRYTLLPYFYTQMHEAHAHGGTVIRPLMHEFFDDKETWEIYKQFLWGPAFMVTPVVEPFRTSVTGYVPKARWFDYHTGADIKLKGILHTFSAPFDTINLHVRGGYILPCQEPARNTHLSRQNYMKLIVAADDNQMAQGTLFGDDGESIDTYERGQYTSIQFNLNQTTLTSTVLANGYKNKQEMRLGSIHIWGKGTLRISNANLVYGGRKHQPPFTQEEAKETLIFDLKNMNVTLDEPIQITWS

Rat intestinal lactase = target: T4, Rat intestinal lactase (Rattus norvegicus, UniProt Q02401); test: Glycosidase inhibition, rat intestinal lactase; assay type: biochemical
T4 sequence (Q02401 868-1928): T3 sequence (Q02401 868-1928)

Rat intestinal sucrase = Rat intestinal sucrase (Rattus norvegicus, UniProt P23739); test: Glycosidase inhibition and kinetic analysis, rat intestinal sucrase; conditions: for Mode of inhibition of rat intestinal sucrase: kinetic analysis
Rat intestinal sucrase, sequence (P23739 whole entry): as above

Almond β-Glucosidase = test: Glycosidase inhibition, almond β-glucosidase; assay type: biochemical; conditions: read-out: IC50 β-Glucosidase Almond
Jack beans α-Mannosidase = target: T5, Jack beans α-Mannosidase (Canavalia ensiformis, UniProt C0HJB3); test: Glycosidase inhibition, jack beans α-mannosidase; assay type: biochemical
T5 sequence (C0HJB3 1-981): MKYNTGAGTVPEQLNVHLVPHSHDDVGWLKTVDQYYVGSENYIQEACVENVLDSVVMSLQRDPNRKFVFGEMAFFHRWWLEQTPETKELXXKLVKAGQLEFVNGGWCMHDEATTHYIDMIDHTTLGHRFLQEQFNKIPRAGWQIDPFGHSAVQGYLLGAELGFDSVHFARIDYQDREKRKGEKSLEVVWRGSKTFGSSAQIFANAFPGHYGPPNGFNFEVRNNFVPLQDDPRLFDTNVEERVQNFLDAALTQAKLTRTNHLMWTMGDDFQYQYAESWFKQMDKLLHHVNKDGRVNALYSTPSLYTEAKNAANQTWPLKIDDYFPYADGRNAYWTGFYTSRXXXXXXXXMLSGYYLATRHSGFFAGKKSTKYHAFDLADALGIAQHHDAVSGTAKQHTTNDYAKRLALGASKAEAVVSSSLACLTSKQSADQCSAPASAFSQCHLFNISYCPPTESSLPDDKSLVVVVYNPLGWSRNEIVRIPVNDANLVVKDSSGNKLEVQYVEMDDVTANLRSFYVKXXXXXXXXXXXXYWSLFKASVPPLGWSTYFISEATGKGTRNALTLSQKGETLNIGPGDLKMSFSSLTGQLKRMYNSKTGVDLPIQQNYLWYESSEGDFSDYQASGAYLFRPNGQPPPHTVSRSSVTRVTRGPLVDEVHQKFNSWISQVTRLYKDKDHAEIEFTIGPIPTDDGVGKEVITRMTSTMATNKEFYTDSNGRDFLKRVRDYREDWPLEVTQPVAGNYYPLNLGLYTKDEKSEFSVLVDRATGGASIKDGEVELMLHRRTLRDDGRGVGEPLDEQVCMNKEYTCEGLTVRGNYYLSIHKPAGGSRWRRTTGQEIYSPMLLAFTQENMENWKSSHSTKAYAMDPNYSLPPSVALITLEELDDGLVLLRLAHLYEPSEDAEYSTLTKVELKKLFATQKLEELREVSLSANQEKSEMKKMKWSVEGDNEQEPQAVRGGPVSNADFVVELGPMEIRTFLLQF

F508del-CFTR [7] = target: F508del-CFTR (Homo sapiens, UniProt P13569, DEL508-508); test: CFTR function in CF-KM4 cells by single-cell fluorescence imaging; assay type: cell-based
[8] = target: T6, Bovine epididymis α-L-Fucosidase (Bos taurus, UniProt Q2KIM0); test: Glycosidase inhibition, bovine epididymis α-L-fucosidase; assay type: biochemical
T6 sequence (Q2KIM0 23-468): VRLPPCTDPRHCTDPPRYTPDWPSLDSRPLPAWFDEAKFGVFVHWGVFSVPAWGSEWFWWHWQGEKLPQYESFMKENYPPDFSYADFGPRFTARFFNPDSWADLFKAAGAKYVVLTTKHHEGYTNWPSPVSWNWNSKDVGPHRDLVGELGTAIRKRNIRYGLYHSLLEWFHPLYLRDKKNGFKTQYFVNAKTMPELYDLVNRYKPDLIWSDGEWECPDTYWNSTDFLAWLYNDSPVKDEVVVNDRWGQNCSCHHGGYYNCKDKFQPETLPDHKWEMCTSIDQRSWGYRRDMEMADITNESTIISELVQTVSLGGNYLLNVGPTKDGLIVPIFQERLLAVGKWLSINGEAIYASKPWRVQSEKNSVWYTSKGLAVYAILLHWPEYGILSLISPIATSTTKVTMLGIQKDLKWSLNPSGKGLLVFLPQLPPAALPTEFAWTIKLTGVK

F508del-CFTR [9] = conditions: ref viii; cited from earlier work
ER glucosidases = conditions: cited from earlier work

Coffee beans α-Galactosidase, sequence (Q42656 16-378): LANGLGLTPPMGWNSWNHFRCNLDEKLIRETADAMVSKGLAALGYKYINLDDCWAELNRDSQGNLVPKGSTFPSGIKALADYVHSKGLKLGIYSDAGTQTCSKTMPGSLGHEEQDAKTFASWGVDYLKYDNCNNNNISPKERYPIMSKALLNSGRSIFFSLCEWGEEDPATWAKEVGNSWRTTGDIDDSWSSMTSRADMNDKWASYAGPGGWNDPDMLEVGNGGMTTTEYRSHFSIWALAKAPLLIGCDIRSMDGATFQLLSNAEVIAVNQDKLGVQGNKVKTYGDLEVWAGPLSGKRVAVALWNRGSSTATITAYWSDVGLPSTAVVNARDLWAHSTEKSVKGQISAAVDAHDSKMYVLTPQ

Row | SMILES | IC50 [1] | IC50 (Snail β-Mannosidase) | IC50 [2] | Inhibition of glycogen phosphorylase (in words) [2] | IC50 (Rat intestinal maltase) | IC50 (Rice α-Glucosidase) | IC50 [3] | IC50 [4] | IC50 [5] | IC50 [6] | IC50 (Rat intestinal lactase) | IC50 (Rat intestinal sucrase) | Ki (Rat intestinal sucrase) | IC50 (Almond β-Glucosidase) | IC50 (Jack beans α-Mannosidase) | Corrector effect on CFTR function (F508del-CFTR [7]) | IC50 [8] | further results
1 | C[C@]1(CO)NC[C@@H](O)[C@@H]1O [4-C-Me-DAB 1D, 1,4-dideoxy-1,4-imino-4-C-methyl-D-arabinitol] | > 1000 µM | > 1000 µM | > 1000 µM | no significant inhibition | 0.74 µM | 7.1 µM | > 1000 µM | > 1000 µM | > 1000 µM | 3.4 µM | > 1000 µM | 0.41 µM | 0.89 µM | > 1000 µM | > 1000 µM | Neither of the 4-C-methyl pyrrolidines 1D and 1L had any corrector effect | > 1000 µM | Mode of inhibition of rat intestinal sucrase (Rat intestinal sucrase; listed as 1D): competitive inhibitor; Mode of inhibition of rat intestinal sucrase (Rat intestinal sucrase; listed as 4-C-Me-DAB): competitive
2 | C[C@@]1(CO)NC[C@H](O)[C@H]1O [4-C-Me-LAB 1L] | > 1000 µM | > 1000 µM | > 1000 µM | no significant inhibition | 2.4 µM | 5.8 µM | > 1000 µM | > 1000 µM | > 1000 µM | 5.1 µM | > 1000 µM |  | 0.95 µM | > 1000 µM | > 1000 µM | Neither of the 4-C-methyl pyrrolidines 1D and 1L had any corrector effect | > 1000 µM | Mode of inhibition of rat intestinal sucrase (Rat intestinal sucrase; listed as 1L): non-competitive inhibitor; Mode of inhibition of rat intestinal sucrase (Rat intestinal sucrase; listed as 4-C-Me-LAB): non-competitive
3 | OC[C@H]1NC[C@@H](O)[C@@H]1O [DAB 3D] | > 1000 µM | > 1000 µM |  |  |  |  | > 1000 µM |  | 756 µM |  |  |  |  | 250 µM |  |  | > 1000 µM | 
4 | OC[C@@H]1NC[C@H](O)[C@H]1O [LAB 3L] | > 1000 µM | > 1000 µM |  |  |  |  | > 1000 µM |  | > 1000 µM |  |  |  |  | > 1000 µM | > 1000 µM |  | > 1000 µM | 
5 | OC[C@@]1(O)CNC[C@H]1O [isoDAB 2D] | > 1000 µM | > 1000 µM | > 1000 µM | no significant inhibition | 24 µM | 41 µM | > 1000 µM | > 1000 µM | > 1000 µM | 20 µM | > 1000 µM | 15 µM |  | > 1000 µM | > 1000 µM |  | > 1000 µM | 
6 | OC[C@]1(O)CNC[C@@H]1O [isoLAB 2L] | > 1000 µM | > 1000 µM | > 1000 µM | no significant inhibition | > 1000 µM | > 1000 µM | > 1000 µM | > 1000 µM | > 1000 µM | > 1000 µM | > 1000 µM | > 1000 µM |  | > 1000 µM | > 1000 µM |  | > 1000 µM | Rescue of the defective F508del-CFTR function (F508del-CFTR [9]): significant rescue; also recorded: partially rescues; Inhibition of ER glucosidases (ER glucosidases): neither of which showed any inhibition
